Measurements from patent publication US20260258370A1, “METHOD FOR OBTAINING A NEUROMUSCULAR ORGANOID AND USE THEREOF” (Universiteit Antwerpen, priority 2021, published 2026).

What was measured:
Type in all cases: cell-based, human
[1] = tested on: CMT1A organoids; assay: Myelin periodic line distance (myelin compaction) by transmission electron microscopy in CMT1A organoids
[2] = tested on: CMT1A organoids; assay: g-ratio of myelinated axons by transmission electron microscopy in CMT1A organoids; settings: Day 25, TEM
[3] = tested on: PI3K-Akt signaling pathway; assay: p-Akt/Akt protein level ratio normalized to β-actin in treated CMT1A iPSC-derived organoids; settings: Day 25, normalized to β-actin

Question: Which results are given for “shRNA-2: Short-hairpin RNA against human PMP22, region CDS (SEQ ID NO 10), Sigma Mission pLKO.1-library, lentivirally transduced (guide CCGGCCTGTTCTTCTGCCAACTCTTCTCGAGAAGAGTTGGCAGAAGAACAGGTTTTTG)”?
Answer: myelin periodic line distance (myelin compaction) ([1]; high concentration (75 μL) of shRNA lentivirus): restored the myelin periodic line distance back to control levels; myelin periodic line distance (myelin compaction) ([1]; low concentration (25 μL) of shRNA lentivirus): partially improved myelin compaction; g-ratio of axons [2]: significantly increased the g-ratio; p-Akt/Akt ratio [3]: reduced p-Akt/Akt ratio could be reversed
